# Measurements from ChEMBL document CHEMBL1201862, “PubChem BioAssay data set” (2004).
#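 Following 48 hours of exposure in 96-well plates, responses at five concentrations were used to interpolate endpoints linearly. GI50 = concentration required for 50% inhibition of growth.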 The source made the active and inactive calls. Cut-off read from the data, not from the text of the source: active = GI50 up to about 1.1 µM and inactive = higher.
# Experiments:
# Experiment in all cases: inhibition of tumour cell growth, NCI panel, 48 h
# 786-0 = system: 786-0
# A498 = system: A498
# A549 = system: A549
# ACHN = system: ACHN
# CAKI-1 = system: CAKI-1
# CCRF-CEM = system: CCRF-CEM
# COLO 205 = system: COLO 205
# DLD-1 = system: DLD-1
# DMS-114 = system: DMS-114
# DMS-273 = system: DMS-273
# EKVX = system: EKVX
# HCC 2998 = system: HCC 2998
# HCT-116 = system: HCT-116
# HCT-15 = system: HCT-15
# HL-60 = system: HL-60
# HOP-18 = system: HOP-18
# HOP-62 = system: HOP-62
# HOP-92 = system: HOP-92
# HT-29 = system: HT-29
# IGROV-1 = system: IGROV-1
# K562 = system: K562
# KM-20L2 = system: KM-20L2
# KM12 = system: KM12
# LOX IMVI = system: LOX IMVI
# LXFL 529 = system: LXFL 529
# M14 = system: M14
# M19-MEL = system: M19-MEL
# MOLT-4 = system: MOLT-4
# Malme-3M = system: Malme-3M
# NCI-H226 = system: NCI-H226
# NCI-H23 = system: NCI-H23
# NCI-H460 = system: NCI-H460
# NCI-H522 = system: NCI-H522
# OVCAR-3 = system: OVCAR-3
# OVCAR-4 = system: OVCAR-4
# OVCAR-5 = system: OVCAR-5
# OVCAR-8 = system: OVCAR-8
# RPMI-8226 = system: RPMI-8226
# RXF 393 = system: RXF 393
# SF-268 = system: SF-268
# SF-295 = system: SF-295
# SF-539 = system: SF-539
# SK-MEL-28 = system: SK-MEL-28
# SK-MEL-2 = system: SK-MEL-2
# SK-MEL-5 = system: SK-MEL-5
# SK-OV-3 = system: SK-OV-3
# SN12C = system: SN12C
# SNB-19 = system: SNB-19
# SNB-75 = system: SNB-75
# SNB-78 = system: SNB-78
# SR = system: SR
# SW-620 = system: SW-620
# TK-10 = system: TK-10
# U-251 = system: U-251
# UACC-257 = system: UACC-257
# UACC-62 = system: UACC-62
# UO-31 = system: UO-31
# XF498 = system: XF498
smiles,measurement,setting,value
[O-][S+]1C(=c2ccc(=C3Sc4ccccc4S3)cc2)Sc2ccccc21 (stereo unspecified),GI50,786-0,17 µM (inactive)
same,GI50,A498,15.8 µM (inactive)
same,GI50,A549,17.6 µM (inactive)
same,GI50,ACHN,19.5 µM (inactive)
same,GI50,CAKI-1,> 52.7 µM (inactive)
same,GI50,CCRF-CEM,> 94.4 µM (inactive)
same,GI50,COLO 205,> 100 µM (inactive)
same,GI50,DLD-1,27.4 µM (inactive)
same,GI50,DMS-114,20.8 µM (inactive)
same,GI50,DMS-273,18.9 µM (inactive)
same,GI50,EKVX,20 µM (inactive)
same,GI50,HCC 2998,16 µM (inactive)
same,GI50,HCT-116,25.1 µM (inactive)
same,GI50,HCT-15,15.3 µM
same,GI50,HL-60,> 100 µM (inactive)
same,GI50,HOP-18,> 100 µM (inactive)
same,GI50,HOP-62,17.7 µM (inactive)
same,GI50,HOP-92,> 67.3 µM (inactive)
same,GI50,HT-29,22.6 µM (inactive)
same,GI50,IGROV-1,38.5 µM (inactive)
same,GI50,K562,> 66.7 µM (inactive)
same,GI50,KM-20L2,17.3 µM (inactive)
same,GI50,KM12,17.4 µM (inactive)
same,GI50,LOX IMVI,17.9 µM (inactive)
same,GI50,LXFL 529,51.2 µM (inactive)
same,GI50,M14,15.1 µM (inactive)
same,GI50,M19-MEL,19.7 µM (inactive)
same,GI50,MOLT-4,> 71.9 µM (inactive)
same,GI50,Malme-3M,> 100 µM (inactive)
same,GI50,NCI-H226,19.2 µM (inactive)
same,GI50,NCI-H23,16.3 µM (inactive)
same,GI50,NCI-H460,18.2 µM (inactive)
same,GI50,NCI-H522,> 100 µM (inactive)
same,GI50,OVCAR-3,> 100 µM (inactive)
same,GI50,OVCAR-4,46.8 µM (inactive)
same,GI50,OVCAR-5,18.3 µM (inactive)
same,GI50,OVCAR-8,17.9 µM (inactive)
same,GI50,RPMI-8226,> 100 µM (inactive)
same,GI50,RXF 393,24.2 µM (inactive)
same,GI50,SF-268,12.4 µM (inactive)
same,GI50,SF-295,17.1 µM (inactive)
same,GI50,SF-539,15.6 µM (inactive)
same,GI50,SK-MEL-28,3.03 µM (inactive)
same,GI50,SK-MEL-2,21.3 µM (inactive)
same,GI50,SK-MEL-5,19.2 µM (inactive)
same,GI50,SK-OV-3,21.8 µM (inactive)
same,GI50,SN12C,15.6 µM (inactive)
same,GI50,SNB-19,17 µM (inactive)
same,GI50,SNB-75,19.1 µM (inactive)
same,GI50,SNB-78,53.3 µM (inactive)
same,GI50,SR,89.5 µM (inactive)
same,GI50,SW-620,> 100 µM (inactive)
same,GI50,TK-10,> 100 µM (inactive)
same,GI50,U-251,14.9 µM (inactive)
same,GI50,UACC-257,> 92.5 µM (inactive)
same,GI50,UACC-62,18.1 µM (inactive)
same,GI50,UO-31,17.2 µM (inactive)
COc1ccc(C2S/C(=C\c3ccccc3)C(=O)N2NC(=O)Cc2ccccc2)cc1 (stereo unspecified),GI50,786-0,> 100 µM (inactive)
same,GI50,A498,> 100 µM (inactive)
same,GI50,A549,> 100 µM (inactive)
same,GI50,ACHN,> 100 µM (inactive)
same,GI50,CAKI-1,> 100 µM (inactive)
same,GI50,CCRF-CEM,49.3 µM (inactive)
same,GI50,COLO 205,> 100 µM (inactive)
same,GI50,DLD-1,> 100 µM (inactive)
same,GI50,DMS-273,> 100 µM (inactive)
same,GI50,HCT-116,> 100 µM (inactive)
same,GI50,HCT-15,40.7 µM
same,GI50,HL-60,55.8 µM (inactive)
same,GI50,HOP-18,> 100 µM (inactive)
same,GI50,HOP-62,> 100 µM (inactive)
same,GI50,HOP-92,> 100 µM (inactive)
same,GI50,HT-29,> 100 µM (inactive)
same,GI50,IGROV-1,> 100 µM (inactive)
same,GI50,K562,> 100 µM (inactive)
same,GI50,KM12,> 100 µM (inactive)
same,GI50,LOX IMVI,> 100 µM (inactive)
same,GI50,LXFL 529,> 100 µM (inactive)
same,GI50,M14,> 100 µM (inactive)
same,GI50,M19-MEL,> 100 µM (inactive)
same,GI50,MOLT-4,> 100 µM (inactive)
same,GI50,Malme-3M,> 100 µM (inactive)
same,GI50,NCI-H226,> 100 µM (inactive)
same,GI50,NCI-H23,> 100 µM (inactive)
same,GI50,NCI-H460,> 100 µM (inactive)
same,GI50,NCI-H522,> 100 µM (inactive)
same,GI50,OVCAR-4,> 100 µM (inactive)
same,GI50,OVCAR-5,> 100 µM (inactive)
same,GI50,OVCAR-8,> 100 µM (inactive)
same,GI50,RPMI-8226,> 100 µM (inactive)
same,GI50,RXF 393,> 100 µM (inactive)
same,GI50,SF-268,> 100 µM (inactive)
same,GI50,SF-295,> 100 µM (inactive)
same,GI50,SF-539,> 100 µM (inactive)
same,GI50,SK-MEL-28,26.1 µM (inactive)
same,GI50,SK-MEL-2,> 100 µM (inactive)
same,GI50,SK-MEL-5,> 100 µM (inactive)
same,GI50,SK-OV-3,> 100 µM (inactive)
same,GI50,SN12C,> 100 µM (inactive)
same,GI50,SNB-75,> 100 µM (inactive)
same,GI50,SR,68.5 µM (inactive)
same,GI50,SW-620,> 100 µM (inactive)
same,GI50,TK-10,> 100 µM (inactive)
same,GI50,U-251,> 100 µM (inactive)
same,GI50,UACC-257,> 100 µM (inactive)
same,GI50,UACC-62,> 100 µM (inactive)
same,GI50,UO-31,> 100 µM (inactive)
Cc1[nH]c2ccccc2c1C1Cc2ccccc2N1C(=O)C#Cc1ccc([N+](=O)[O-])cc1 (stereo unspecified),GI50,786-0,> 100 µM (inactive)
same,GI50,A498,> 100 µM (inactive)
same,GI50,A549,> 100 µM (inactive)
same,GI50,ACHN,> 100 µM (inactive)
same,GI50,CCRF-CEM,19.2 µM (inactive)
same,GI50,DLD-1,> 100 µM (inactive)
same,GI50,DMS-114,> 100 µM (inactive)
same,GI50,EKVX,> 100 µM (inactive)
same,GI50,HCC 2998,> 100 µM (inactive)
same,GI50,HCT-116,> 100 µM (inactive)
same,GI50,HL-60,> 100 µM (inactive)
same,GI50,HOP-18,> 100 µM (inactive)
same,GI50,HOP-62,> 100 µM (inactive)
same,GI50,HT-29,> 100 µM (inactive)
same,GI50,IGROV-1,> 100 µM (inactive)
same,GI50,K562,> 100 µM (inactive)
same,GI50,KM-20L2,> 100 µM (inactive)
same,GI50,KM12,> 100 µM (inactive)
same,GI50,LOX IMVI,> 100 µM (inactive)
same,GI50,LXFL 529,> 100 µM (inactive)
same,GI50,M14,> 100 µM (inactive)
same,GI50,MOLT-4,8.87 µM (inactive)
same,GI50,Malme-3M,> 100 µM (inactive)
same,GI50,NCI-H226,> 100 µM (inactive)
same,GI50,NCI-H23,> 100 µM (inactive)
same,GI50,NCI-H460,> 100 µM (inactive)
same,GI50,OVCAR-3,> 100 µM (inactive)
same,GI50,OVCAR-4,43.7 µM (inactive)
same,GI50,OVCAR-5,> 100 µM (inactive)
same,GI50,OVCAR-8,> 100 µM (inactive)
same,GI50,RPMI-8226,76 µM (inactive)
same,GI50,RXF 393,6.81 µM (inactive)
same,GI50,SF-268,> 100 µM (inactive)
same,GI50,SF-295,> 100 µM (inactive)
same,GI50,SF-539,> 100 µM (inactive)
same,GI50,SK-MEL-28,> 100 µM (inactive)
same,GI50,SK-OV-3,> 100 µM (inactive)
same,GI50,SN12C,> 100 µM (inactive)
same,GI50,SNB-19,> 100 µM (inactive)
same,GI50,SNB-75,> 100 µM (inactive)
same,GI50,SNB-78,> 100 µM (inactive)
same,GI50,SR,8 µM (inactive)
same,GI50,SW-620,> 100 µM (inactive)
same,GI50,TK-10,> 100 µM (inactive)
same,GI50,U-251,> 100 µM (inactive)
same,GI50,UACC-257,> 100 µM (inactive)
same,GI50,UACC-62,> 100 µM (inactive)
same,GI50,UO-31,51.9 µM (inactive)
same,GI50,XF498,> 100 µM (inactive)
